Measurements published in publication PMC5224920, “Assessing the mechanism and therapeutic potential of modulators of the human Mediator complex-associated protein kinases” (eLife, 2016).

System: 12 single or co-culture in vitro tissue models of primary cells
Test: Culture/co-culture cell model panel, extracellular biomarkers (DiscoveRx); as to CCL2/MCP-1: reference of the scale not given here; as to CD38: reference of the scale not given here; as to CD40: reference of the scale not given here; as to CD69: reference of the scale not given here; as to CXCL8/IL-8: reference of the scale not given here; as to CXCL9/MIG: reference of the scale not given here; as to IL-1alpha: reference of the scale not given here; as to PBMC Cytotoxicity: reference of the scale not given here; as to SRB: reference of the scale not given here
Type: cell-based, human

In the case of `CN1c2ccc(-c3cncc(Cl)c3N3CCC4(CC3)CNC(=O)O4)cc2CS1(=O)=O` [CMPD2], the CXCL9/MIG (/TH2, 1.00E2 nM) is reported as 0.013, the “Collagen IV” value (/TH2, 1.00E2 nM) is reported as 0.016 and the “PBMC Cytotoxicity” value (/TH2, 1.00E2 nM) is reported as -0.007. The SRB (/TH2, 1.00E2 nM) was -0.066, the sIL-17A (/TH2, 1.00E2 nM) was 0.165 and the sIL-17F (/TH2, 1.00E2 nM) was 0.173. It also gave a CCL2/MCP-1 (/TH2, 1.00E3 nM) of -0.082, a CCL26/Eotaxin-3 (/TH2, 1.00E3 nM) of -0.177 and a CD38 (/TH2, 1.00E3 nM) of -0.024. The CD40 (/TH2, 1.00E3 nM) was -0.095, the CD69 (/TH2, 1.00E3 nM) was -0.010 and the CD87/uPAR (/TH2, 1.00E3 nM) was -0.180. It also gave a CD106/VCAM-1 (/TH2, 1.00E3 nM) of 0.017, a CXCL8/IL-8 (/TH2, 1.00E3 nM) of -0.045 and a CXCL9/MIG (/TH2, 1.00E3 nM) of 0.011. The “Collagen IV” value (/TH2, 1.00E3 nM) was -0.006, the “PBMC Cytotoxicity” value (/TH2, 1.00E3 nM) was -0.011 and the SRB (/TH2, 1.00E3 nM) was -0.062. The sIL-17A (/TH2, 1.00E3 nM) was 0.168, the sIL-17F (/TH2, 1.00E3 nM) was -0.013 and the CCL2/MCP-1 (/TH2, 1.00E4 nM) was -0.093. The CCL26/Eotaxin-3 (/TH2, 1.00E4 nM) was -0.166, the CD38 (/TH2, 1.00E4 nM) was -0.035 and the CD40 (/TH2, 1.00E4 nM) was -0.115. The CD69 (/TH2, 1.00E4 nM) was -0.043, the CD106/VCAM-1 (/TH2, 1.00E4 nM) was 0.00327 and the CXCL8/IL-8 (/TH2, 1.00E4 nM) was -0.042. For the same compound, the CXCL9/MIG (/TH2, 1.00E4 nM) was 0.000193, the “Collagen IV” value (/TH2, 1.00E4 nM) was -0.031 and the “PBMC Cytotoxicity” value (/TH2, 1.00E4 nM) was -0.017. For the same compound, the SRB (/TH2, 1.00E4 nM) was -0.065, the sIL-17A (/TH2, 1.00E4 nM) was 0.146 and the sIL-17F (/TH2, 1.00E4 nM) was -0.041. The CCL26/Eotaxin-3 (BENo, 1.00E0 nM) was 0.071, the CD54/ICAM-1 (BENo, 1.00E0 nM) was 0.057 and the CD87/uPAR (BENo, 1.00E0 nM) was 0.050. It also gave a CXCL8/IL-8 (BENo, 1.00E0 nM) of 0.030, a CXCL9/MIG (BENo, 1.00E0 nM) of 0.080 and a CXCL10/IP-10 (BENo, 1.00E0 nM) of 0.112. For the same compound, the CXCL11/I-TAC (BENo, 1.00E0 nM) was 0.105, the EGFR (BENo, 1.00E0 nM) was 0.075 and the HLA-DR (BENo, 1.00E0 nM) was 0.134. For the same compound, the IL-1alpha (BENo, 1.00E0 nM) was 0.066, the “Keratin 8/18” value (BENo, 1.00E0 nM) was 0.059 and the MMP-1 (BENo, 1.00E0 nM) was 0.060. The MMP-9 (BENo, 1.00E0 nM) was -0.001, the PAI-I (BENo, 1.00E0 nM) was -0.018 and the SRB (BENo, 1.00E0 nM) was 0.00452. The tPA (BENo, 1.00E0 nM) was 0.028, the uPA (BENo, 1.00E0 nM) was 0.026 and the CCL26/Eotaxin-3 (BENo, 1.00E1 nM) was 0.036. The CD54/ICAM-1 (BENo, 1.00E1 nM) was 0.042, the CD87/uPAR (BENo, 1.00E1 nM) was 0.062 and the CXCL8/IL-8 (BENo, 1.00E1 nM) was 0.077. For the same compound, the CXCL9/MIG (BENo, 1.00E1 nM) was 0.047, the CXCL10/IP-10 (BENo, 1.00E1 nM) was 0.119 and the CXCL11/I-TAC (BENo, 1.00E1 nM) was 0.092. It also gave an EGFR (BENo, 1.00E1 nM) of 0.077, an HLA-DR (BENo, 1.00E1 nM) of 0.115 and an IL-1alpha (BENo, 1.00E1 nM) of 0.048. The “Keratin 8/18” value (BENo, 1.00E1 nM) was 0.047, the MMP-1 (BENo, 1.00E1 nM) was 0.063 and the MMP-9 (BENo, 1.00E1 nM) was -0.010. For the same compound, the PAI-I (BENo, 1.00E1 nM) was -0.050, the SRB (BENo, 1.00E1 nM) was 0.00136 and the tPA (BENo, 1.00E1 nM) was 0.026. It also gave a uPA (BENo, 1.00E1 nM) of 0.026, a CCL26/Eotaxin-3 (BENo, 1.00E2 nM) of 0.038 and a CD54/ICAM-1 (BENo, 1.00E2 nM) of -0.034. It also gave a CD87/uPAR (BENo, 1.00E2 nM) of 0.110, a CXCL8/IL-8 (BENo, 1.00E2 nM) of 0.017 and a CXCL9/MIG (BENo, 1.00E2 nM) of 0.084. For the same compound, the CXCL10/IP-10 (BENo, 1.00E2 nM) was 0.121, the CXCL11/I-TAC (BENo, 1.00E2 nM) was 0.082 and the EGFR (BENo, 1.00E2 nM) was 0.066. For the same compound, the HLA-DR (BENo, 1.00E2 nM) was 0.075, the IL-1alpha (BENo, 1.00E2 nM) was 0.078 and the “Keratin 8/18” value (BENo, 1.00E2 nM) was 0.033. It also gave an MMP-1 (BENo, 1.00E2 nM) of 0.055, an MMP-9 (BENo, 1.00E2 nM) of 0.015 and a PAI-I (BENo, 1.00E2 nM) of -0.035. For the same compound, the SRB (BENo, 1.00E2 nM) was 0.002, the tPA (BENo, 1.00E2 nM) was 0.038 and the uPA (BENo, 1.00E2 nM) was 0.032. It also gave a CCL26/Eotaxin-3 (BENo, 1.00E3 nM) of 0.020, a CD54/ICAM-1 (BENo, 1.00E3 nM) of -0.011 and a CD87/uPAR (BENo, 1.00E3 nM) of 0.063. It also gave a CXCL8/IL-8 (BENo, 1.00E3 nM) of 0.028, a CXCL9/MIG (BENo, 1.00E3 nM) of 0.087 and a CXCL10/IP-10 (BENo, 1.00E3 nM) of 0.136. The CXCL11/I-TAC (BENo, 1.00E3 nM) was 0.044, the EGFR (BENo, 1.00E3 nM) was 0.034 and the HLA-DR (BENo, 1.00E3 nM) was 0.115. The IL-1alpha (BENo, 1.00E3 nM) was 0.047, the “Keratin 8/18” value (BENo, 1.00E3 nM) was 0.017 and the MMP-1 (BENo, 1.00E3 nM) was 0.039. It also gave an MMP-9 (BENo, 1.00E3 nM) of 0.056 and a PAI-I (BENo, 1.00E3 nM) of -0.090.
